Experiments:
[1] = buffer, pH 0
Description: The solubility is evaluated at a pH 0f 7.4

[2] = physchem
Description: pKa value is evaluated by nonlinear regression analysis of pH-dependent partition measurements.

[3] = physchem; details: buffer, pH 7.4
Description: Lipophilicity was measured at pH 7.4

[4] = pKa value for the compound is determined by potentiometric titration.; format: physicochemical
[5] = biological target: T1, Cholecystokinin receptor type A (Rattus norvegicus, UniProt P30551)
T1 sequence (P30551 whole entry): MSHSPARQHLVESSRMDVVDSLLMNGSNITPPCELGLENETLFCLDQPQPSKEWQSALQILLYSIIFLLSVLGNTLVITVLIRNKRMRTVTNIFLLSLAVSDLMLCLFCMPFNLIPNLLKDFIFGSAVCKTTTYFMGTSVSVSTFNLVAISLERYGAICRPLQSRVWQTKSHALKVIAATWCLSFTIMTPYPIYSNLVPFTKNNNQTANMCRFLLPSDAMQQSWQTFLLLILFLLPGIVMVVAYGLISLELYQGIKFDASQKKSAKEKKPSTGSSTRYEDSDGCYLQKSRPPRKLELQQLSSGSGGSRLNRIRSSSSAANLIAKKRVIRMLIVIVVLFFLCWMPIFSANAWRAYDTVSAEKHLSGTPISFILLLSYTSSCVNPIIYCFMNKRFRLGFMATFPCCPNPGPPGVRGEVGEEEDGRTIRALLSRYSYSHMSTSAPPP
Description: Inhibition of [125 I]BH CCK-8S binding to Cholecystokinin type A receptor in pancreatic tissue

[6] = pKa value is evaluated by nonlinear regression analysis of pH-dependent partition measurements; pKa could not be reliably determined due to poor solubility at low pHs; format: physicochemical

| SMILES | pKa [4] | S [1] | logD [3] | IC50 [5] | other results |
| --- | --- | --- | --- | --- | --- |
| CN1C(=O)[C@H](NC(=O)Nc2ccc3c(c2)N(c2nn[nH]n2)CC3)N=C(c2ccccc2)c2ccccc21 |  | 0.87 µg/mL | 1.38 |  | pKa [2]: 4.8 |
| O=[N+]([O-])c1ccc(CNc2nn[nH]n2)cc1 | 5.53 |  |  |  |  |
| Cc1ccc(NC(=O)N[C@@H]2N=C(C3CCCCC3)c3ccccc3N(C)C2=O)cc1N(C)c1nn[nH]n1 |  | 0.49 µg/mL |  | 1.6 µM |  |
| O=[N+]([O-])c1ccc2c(c1)CCN2c1nn[nH]n1 | 4.02 |  |  |  |  |
| CN1C(=O)[C@H](NC(=O)Nc2cccc(CNc3nn[nH]n3)c2)N=C(c2ccccc2)c2ccccc21 |  | 0.02 µg/mL | 1.47 | 3 µM | pKa [2]: 5.9 |
| CN1C(=O)[C@H](NC(=O)Nc2cccc(Nc3nn[nH]n3)c2)N=C(c2ccccc2)c2ccccc21 |  | 0.1 µg/mL | 0.89 | 3 µM | pKa [2]: 5.1 |
| Cc1ccc(NC(=O)N[C@@H]2N=C(c3ccccc3)c3ccccc3N(C)C2=O)cc1Nc1nn[nH]n1 |  | 0.88 µg/mL | 1.37 | 3 µM | pKa [2]: 1.37 |
| CN1C(=O)[C@H](NC(=O)Nc2cccc(N(C)c3nn[nH]n3)c2)N=C(C2CCCCC2)c2ccccc21 |  | 60 µg/mL |  |  |  |
| Cc1ccc(NC(=O)N[C@@H]2N=C(C3CCCCC3)c3ccccc3N(C)C2=O)cc1Nc1nn[nH]n1 |  | 57 µg/mL |  |  |  |
| CN1C(=O)[C@H](NC(=O)Nc2cccc(CNc3nn[nH]n3)c2)N=C(C2CCCCC2)c2ccccc21 |  | 3.7 µg/mL |  |  |  |
| CN1C(=O)[C@H](NC(=O)Nc2cccc(N(C)c3nn[nH]n3)c2)N=C(c2ccccc2)c2ccccc21 |  | 0.16 µg/mL | 1.14 | 3 µM | pKa [6]: Insoluble |
| Cc1cc([N+](=O)[O-])ccc1Nc1nn[nH]n1 | 4.46 |  |  |  |  |
| Cc1cccc(NC(=O)N[C@@H]2N=C(c3ccccc3)c3ccccc3N(C)C2=O)c1 [L-365260] |  | < 0.002 µg/mL |  |  |  |

Further lines, with some results ahead:

| pKa [4] | SMILES | S [1] | logD [3] | IC50 [5] | other results |
| --- | --- | --- | --- | --- | --- |
| 4.23 | O=[N+]([O-])c1ccc(Nc2nn[nH]n2)cc1 |  |  |  |  |
| 4.46 | CN(c1ccc([N+](=O)[O-])cc1)c1nn[nH]n1 |  |  |  |  |
| 5.02 | Cc1cc([N+](=O)[O-])ccc1N(C)c1nn[nH]n1 |  |  |  |  |

From ChEMBL document CHEMBL1129488, “Controlled modification of acidity in cholecystokinin B receptor antagonists: N-(1,4-benzodiazepin-3-yl)-N'-[3-(tetrazol-5-ylamino) phenyl]ureas” (J Med Chem, 1996)
